target: SIK2 (Homo sapiens, UniProt Q9H0K1); assay: SIK2 Enzymatic Assay High Version 2 (High ATP); assay type: biochemical; details: not given
Method in brief: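 At room temperature, enzyme (6 nM, 2× final) was preincubated with compound for 30 min, then 6 mM ATP and 400 μM HDAC5tide (both 2× final) were added for 2 h. ADP formed was measured by ADP-Glo Max (2 h reagent, 1 h detection) using luminescence.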

Chain of SIK2 (Q9H0K1 whole entry, species assumed): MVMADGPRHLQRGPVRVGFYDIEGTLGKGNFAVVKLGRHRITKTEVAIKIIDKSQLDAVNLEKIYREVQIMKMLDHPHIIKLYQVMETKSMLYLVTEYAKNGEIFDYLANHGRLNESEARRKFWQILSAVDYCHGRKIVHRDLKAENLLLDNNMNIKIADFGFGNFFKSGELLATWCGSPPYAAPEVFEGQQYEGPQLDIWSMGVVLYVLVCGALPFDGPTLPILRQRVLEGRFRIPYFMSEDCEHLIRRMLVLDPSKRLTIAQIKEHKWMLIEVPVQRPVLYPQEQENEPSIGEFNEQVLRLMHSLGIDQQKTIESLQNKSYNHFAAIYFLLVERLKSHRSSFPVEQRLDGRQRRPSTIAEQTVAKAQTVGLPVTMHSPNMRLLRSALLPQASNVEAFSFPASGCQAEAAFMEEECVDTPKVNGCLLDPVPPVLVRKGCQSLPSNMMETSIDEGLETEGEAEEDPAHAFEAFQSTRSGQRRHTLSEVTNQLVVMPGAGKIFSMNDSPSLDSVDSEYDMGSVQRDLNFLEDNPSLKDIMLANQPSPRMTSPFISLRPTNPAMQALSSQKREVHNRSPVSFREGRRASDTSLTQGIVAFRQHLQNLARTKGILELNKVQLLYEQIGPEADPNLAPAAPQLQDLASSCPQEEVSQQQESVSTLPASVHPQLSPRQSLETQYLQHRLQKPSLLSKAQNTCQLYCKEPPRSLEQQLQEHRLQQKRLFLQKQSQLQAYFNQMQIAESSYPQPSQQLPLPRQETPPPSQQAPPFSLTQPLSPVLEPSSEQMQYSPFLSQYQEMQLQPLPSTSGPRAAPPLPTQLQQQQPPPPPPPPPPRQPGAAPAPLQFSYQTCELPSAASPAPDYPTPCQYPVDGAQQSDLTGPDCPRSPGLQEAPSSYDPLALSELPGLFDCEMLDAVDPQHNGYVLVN

Row | Compound | IC50 [µM]
1 | Cc1cc(-c2cn3cc(Nc4cc(C)nc(C)n4)nc3cn2)c(OC2C[C@H]3COC[C@@H](C2)N3C)cn1 (stereo partly drawn) [Example 349, N-(2,6-dimethylpyrimidin-4-yl)-6-[2-methyl-5-[[(1R,5S)-9-methyl-3-oxa-9-azabicyclo[3.3.1]nonan-7-yl]oxy]-4-pyridyl]imidazo[1,2-a]pyrazin-2-amine] | < 0.000847
2 | CNC(=O)c1c(C)cc(Nc2cc3cc(-c4cc(C)ncc4O[C@H]4C[C@H]5COC[C@@H](C4)N5C(C)=O)ccn3n2)nc1C [Example 358, 6-[[5-[5-[[(1R,5S,7s)-9-acetyl-3-oxa-9-azabicyclo[3.3.1]nonan-7-yl]oxy]-2-methyl-4-pyridyl]pyrazolo[1,5-a]pyridin-2-yl]amino]-N,2,4-trimethyl-pyridine-3-carboxamide] | 0.00783
3 | Cc1cc(-c2ccn3nc(Nc4ccc(F)cn4)cc3c2)c(O[C@H]2C[C@H]3COC[C@@H](C2)N3)cn1 [Example 127, 5-(5-(((1R,5S,7s)-3-oxa-9-azabicyclo[3.3.1]nonan-7-yl)oxy)-2-methylpyridin-4-yl)-N-(5-fluoropyridin-2-yl)pyrazolo[1,5-a]pyridin-2-amine] | < 0.000847
4 | Cc1cc(-c2ccn3nc(Nc4cccnn4)cc3c2)c(O[C@H]2C[C@H]3COC[C@@H](C2)N3)cn1 [Example 394, 5-[2-methyl-5-[[(1R,5S,7s)-3-oxa-9-azabicyclo[3.3.1]nonan-7-yl]oxy]-4-pyridyl]-N-pyridazin-3-yl-pyrazolo[1,5-a]pyridin-2-amine] | < 0.000847
5 | Cc1cc(-c2ccn3nc(N)cc3c2)c(O[C@H]2C[C@H]3COC[C@@H](C2)N3)cn1 [Example 405, 5-(5-(((1R,5S,7s)-3-oxa-9-azabicyclo[3.3.1]nonan-7-yl)oxy)-2-methylpyridin-4-yl)pyrazolo[1,5-a]pyridin-2-amine] | < 0.000847
6 | Cc1cc(-c2ccn3nc(Nc4cc(C)c(=O)n(C)n4)cc3c2)c(OC2C[C@H]3COC[C@@H](C2)N3)cn1 (stereo partly drawn) [Example 337, 2,4-dimethyl-6-[[5-[2-methyl-5-[[(1S,5R)-3-oxa-9-azabicyclo[3.3.1]nonan-7-yl]oxy]-4-pyridyl]pyrazolo[1,5-a]pyridin-2-yl]amino]pyridazin-3-one] | 0.00148
7 | Cc1cc(-c2ccn3nc(Nc4ncccn4)cc3c2)c(O[C@H]2C[C@H]3COC[C@@H](C2)N3)cn1 [Example 402, 5-[2-methyl-5-[[(1S,5R,7s)-3-oxa-9-azabicyclo[3.3.1]nonan-7-yl]oxy]-4-pyridyl]-N-pyrimidin-2-yl-pyrazolo[1,5-a]pyridin-2-amine] | 0.0984
8 | Cc1cc(-c2ccn3nc(Nc4ncc(F)cn4)cc3c2)c(O[C@H]2C[C@H]3COC[C@@H](C2)N3)cn1 [Example 404, N-(5-fluoropyrimidin-2-yl)-5-[2-methyl-5-[[(1S,5R,7s)-3-oxa-9-azabicyclo[3.3.1]nonan-7-yl]oxy]-4-pyridyl]pyrazolo[1,5-a]pyridin-2-amine] | 0.058

same assay, conditions: enzyme 6 nM, 6 mM ATP and 400 μM HDAC5tide (each 2× final concentration); 30 minutes pre-incubation, 2 hours; ADP-Glo Max luminescence; read-out: SIK2 high ATP IC50 (μM) (Test Example 2)

Row | Compound | IC50 [µM]
9 | Cc1cc(Nc2cc3cc(-c4cc(OCC(F)F)ncc4OCC(C)(C)C#N)ccn3n2)nc(C)n1 [Example 660, 3-[[6-(2,2-difluoroethoxy)-4-[2-[(2,6-dimethylpyrimidin-4-yl)amino]pyrazolo[1,5-a]pyridin-5-yl]-3-pyridyl]oxy]-2,2-dimethyl-propanenitrile] | 0.184
10 | Cc1cc(Nc2cc3cc(-c4cc(OCC(F)(F)F)ncc4O[C@H]4CC[C@H](O)CC4)ccn3n2)nc(C)n1 [Example 664, 4-[[4-[2-[(2,6-dimethylpyrimidin-4-yl)amino]pyrazolo[1,5-a]pyridin-5-yl]-6-(2,2,2-trifluoroethoxy)-3-pyridyl]oxy]cyclohexanol] | 0.0953
11 | Cc1cc(-c2ccn3nc(NC(=O)C4CC4)cc3c2)c(OC[C@]2(F)CCN(C)C2)cn1 (single isomer, unassigned) [Example 519, (*S)—N-[5-[5-[(3-fluoro-1-methyl-pyrrolidin-3-yl)methoxy]-2-methyl-4-pyridyl]pyrazolo[1,5-a]pyridin-2-yl]cyclopropanecarboxamide] | 0.0251
12 | CC(C)(C#N)COc1cnc(OC(F)F)cc1-c1ccn2nc(Nc3cccnc3)cc2c1 [Example 694, 3-[[6-(difluoromethoxy)-4-[2-(3-pyridylamino)pyrazolo[1,5-a]pyridin-5-yl]-3-pyridyl]oxy]-2,2-dimethyl-propanenitrile] | 0.0195
13 | Cc1cc(-c2ccn3nc(NC(=O)C4CC4)cc3c2)c(OC[C@@](C)(O)C(F)(F)F)cn1 (single isomer, unassigned) [Example 189, (*R)—N-(5-(2-methyl-5-(3,3,3-trifluoro-2-hydroxy-2-methylpropoxy)pyridin-4-yl)pyrazolo[1,5-a]pyridin-2-yl)cyclopropanecarboxamide] | 0.0367
14 | Cc1cc(-c2ccn3nc(NC(=O)C4CC4)cc3c2)c(OC[C@@H](O)C(F)(F)F)cn1 (single isomer, unassigned) [Example 454, (*R)—N-[5-[2-methyl-5-[(2R)-3,3,3-trifluoro-2-hydroxy-propoxy]-4-pyridyl]pyrazolo[1,5-a]pyridin-2-yl]cyclopropanecarboxamide] | 0.0134
15 | Cc1cc(-c2ccn3nc(NC(=O)C4CC4)cc3c2)c(OC[C@]23C[C@H](CO2)N(C)C3)cn1 [Example 249, N-[5-[2-methyl-5-[[(1R,4R)-2-methyl-5-oxa-2-azabicyclo[2.2.1]heptan-4-yl]methoxy]-4-pyridyl]pyrazolo[1,5-a]pyridin-2-yl]cyclopropanecarboxamide] | 0.0237
16 | Cc1cc(-c2ccn3nc(Nc4cc(C)nc(C)n4)cc3c2)c(OC[C@H](O)C2CC2)cn1 [Example 558, (1R)-1-cyclopropyl-2-[[4-[2-[(2,6-dimethylpyrimidin-4-yl)amino]pyrazolo[1,5-a]pyridin-5-yl]-6-methyl-3-pyridyl]oxy]ethanol] | 0.0695
17 | Cc1cc(-c2ccn3nc(Nc4cc(C)nc(C)n4)cc3c2)c(OC[C@@]2(C)CCOC2)cn1 (single isomer, unassigned) [Example 536, (*S)—N-(2,6-dimethylpyrimidin-4-yl)-5-[2-methyl-5-[(3-methyltetrahydrofuran-3-yl)methoxy]-4-pyridyl]pyrazolo[1,5-a]pyridin-2-amine] | 0.0535
18 | Cc1cc(Nc2cc3cc(-c4cc(OC(F)F)ncc4OCC(C)(C)C#N)ccn3n2)ncn1 [Example 685, 3-[[6-(difluoromethoxy)-4-[2-[(6-methylpyrimidin-4-yl)amino]pyrazolo[1,5-a]pyridin-5-yl]-3-pyridyl]oxy]-2,2-dimethyl-propanenitrile] | 0.0312
19 | Cc1cc(-c2ccn3nc(Nc4cc(C)c(=O)n(C5CC5)n4)cc3c2)c(OC[C@@H]2COCCO2)cn1 [Example 561, 2-cyclopropyl-6-[[5-[5-[[(2S)-1,4-dioxan-2-yl]methoxy]-2-methyl-4-pyridyl]pyrazolo[1,5-a]pyridin-2-yl]amino]-4-methyl-pyridazin-3-one] | 0.0619
20 | Cc1cc(-c2ccn3nc(NC(=O)C4CC4)cc3c2)c(OC2CCC(O)(C(C)C)CC2)cn1 (centres unmarked) [Example 196] | 0.00247
21 | (*S)-4-[[6-(difluoromethoxy)-4-[2-[(2,6-dimethylpyrimidin-4-yl)amino]pyrazolo[1,5-a]pyridin-5-yl]-3-pyridyl]oxymethyl]-1,5,5-trimethyl-pyrrolidin-2-one [Example 734] | 0.00307
22 | Cn1cc(Nc2cc3cc(-c4cc(OC(F)F)ncc4OCC(C)(C)C#N)ccn3n2)cn1 [Example 692, 3-[[6-(difluoromethoxy)-4-[2-[(1-methylpyrazol-4-yl)amino]pyrazolo[1,5-a]pyridin-5-yl]-3-pyridyl]oxy]-2,2-dimethyl-propanenitrile] | 0.00228
23 | Cc1cc(Nc2cc3cc(-c4cc(OC(F)F)ncc4OCC(C)(C)C#N)ccn3n2)nc(N2CCOCC2)n1 [Example 710, 3-[[6-(difluoromethoxy)-4-[2-[(6-methyl-2-morpholino-pyrimidin-4-yl)amino]pyrazolo[1,5-a]pyridin-5-yl]-3-pyridyl]oxy]-2,2-dimethyl-propanenitrile] | 0.0094
24 | COc1cc(Nc2cc3cc(-c4cc(C)ncc4OCC(C)(C)O)ccn3n2)ccc1C(=O)NC1CC1 [Example 643, N-cyclopropyl-4-[[5-[5-(2-hydroxy-2-methyl-propoxy)-2-methyl-4-pyridyl]pyrazolo[1,5-a]pyridin-2-yl]amino]-2-methoxy-benzamide] | 0.157
25 | Cc1cc(-c2ccn3nc(Nc4cc(C)c(=O)[nH]n4)cc3c2)c(OCC(C)(C)O)cn1 [Example 208, 3-[[5-[5-(2-hydroxy-2-methyl-propoxy)-2-methyl-4-pyridyl]pyrazolo[1,5-a]pyridin-2-yl]amino]-5-methyl-1H-pyridazin-6-one] | 0.00856
26 | Cc1cc(-c2ccn3nc(Nc4cc(F)c(C(=O)NC5CC5)c(F)c4)cc3c2)c(O[C@H]2CC[C@H](O)CC2)cn1 [Example 614, N-cyclopropyl-2,6-difluoro-4-[[5-[5-(4-hydroxycyclohexoxy)-2-methyl-4-pyridyl]pyrazolo[1,5-a]pyridin-2-yl]amino]benzamide] | 0.0879
27 | COc1cc(Nc2cc3cc(-c4cc(C)ncc4O[C@H]4CC[C@H](O)CC4)ccn3n2)ccc1C(=O)NC1CC1 [Example 242, N-cyclopropyl-4-[[5-[5-(4-hydroxycyclohexoxy)-2-methyl-4-pyridyl]pyrazolo[1,5-a]pyridin-2-yl]amino]-2-methoxy-benzamide] | 0.0448
28 | Cc1cc(-c2ccn3nc(Nc4cc(C)nc(C)n4)cc3c2)c(OCc2cccc(O)c2)cn1 [Example 272, 3-[[4-[2-[(2,6-dimethylpyrimidin-4-yl)amino]pyrazolo[1,5-a]pyridin-5-yl]-6-methyl-3-pyridyl]oxymethyl]phenol] | 0.00876
29 | Cc1cc(-c2ccn3nc(Nc4nccc(C)c4F)cc3c2)c(OCC(C)(C)O)cn1 [Example 652, 1-[[4-[2-[(3-fluoro-4-methyl-2-pyridyl)amino]pyrazolo[1,5-a]pyridin-5-yl]-6-methyl-3-pyridyl]oxy]-2-methyl-propan-2-ol] | 0.557

Reference: patent US20240158392A1 (Janssen Biotech, Inc., priority 2021, published 2024)
